These results are taken from patent publication US11739098B2 (BRISTOL-MYERS SQUIBB COMPANY, priority 2017, dated 2023).

The term IC50 denotes the point on the concentration scale where inhibition reaches its midpoint. Low readings indicate inhibition by little substance, high ones a need for much substance.

Bounds are passed on as bounds.

Assay type in all cases: cell-based
The target in one assay is T1, human TLR9 (Homo sapiens, UniProt Q9NR96).
T1 construct: host or cells: HEK-Blue cells (HEK293-derived reporter line)
T1 sequence (Q9NR96 26-1032): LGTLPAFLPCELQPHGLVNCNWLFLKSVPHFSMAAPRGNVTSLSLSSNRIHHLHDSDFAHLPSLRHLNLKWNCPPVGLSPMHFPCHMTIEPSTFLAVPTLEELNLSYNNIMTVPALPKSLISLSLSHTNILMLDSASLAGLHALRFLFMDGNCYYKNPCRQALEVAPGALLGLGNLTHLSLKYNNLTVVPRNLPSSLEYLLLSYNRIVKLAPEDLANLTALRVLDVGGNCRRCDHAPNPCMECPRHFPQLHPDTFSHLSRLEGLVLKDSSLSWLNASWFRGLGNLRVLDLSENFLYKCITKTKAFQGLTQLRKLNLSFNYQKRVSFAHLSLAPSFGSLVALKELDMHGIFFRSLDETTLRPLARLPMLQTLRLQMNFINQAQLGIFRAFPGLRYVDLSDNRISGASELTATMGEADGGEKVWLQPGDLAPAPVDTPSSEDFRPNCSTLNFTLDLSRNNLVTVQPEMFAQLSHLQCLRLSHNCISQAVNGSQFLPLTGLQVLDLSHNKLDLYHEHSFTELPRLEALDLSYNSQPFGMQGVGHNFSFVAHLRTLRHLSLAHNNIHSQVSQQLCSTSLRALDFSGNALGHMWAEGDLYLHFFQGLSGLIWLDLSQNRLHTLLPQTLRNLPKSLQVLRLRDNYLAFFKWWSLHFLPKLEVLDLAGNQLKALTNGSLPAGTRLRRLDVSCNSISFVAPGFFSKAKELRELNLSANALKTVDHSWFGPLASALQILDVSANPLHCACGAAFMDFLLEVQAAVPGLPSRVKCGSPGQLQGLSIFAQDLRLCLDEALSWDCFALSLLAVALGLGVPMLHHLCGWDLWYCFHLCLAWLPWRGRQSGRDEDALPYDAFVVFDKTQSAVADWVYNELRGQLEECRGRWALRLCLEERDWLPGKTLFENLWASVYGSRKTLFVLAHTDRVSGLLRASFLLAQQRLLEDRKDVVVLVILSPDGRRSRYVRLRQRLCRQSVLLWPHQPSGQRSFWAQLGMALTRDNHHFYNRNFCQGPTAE
Nature of the assay: TLR9 inhibition reporter assay (HEK-Blue cells, SEAP reporter, ODN2006 stimulation). As to conditions: HEK-Blue cells overexpressing human TLR9, SEAP reporter, ODN2006 5 nM. The method, boiled down: (§1)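 Cells seeded per well (15000 TLR7, 20,000 TLR8, 25,000 TLR9); compound added over 0.05 nM–50 μM for 30 min at room temperature; agonist added (TLR7 gardiquimod 7.5 μM, TLR8 R848 15.9 μM, TLR9 ODN2006 5 nM); 22 h at 37 °C; SEAP measured; percent inhibition calculated.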
(In general: A reporter such as luciferase makes a cellular process visible.)

The next assay addresses T2, human TLR8 (Homo sapiens, UniProt Q9NR97).
T2 construct: host or cells: HEK-Blue cells (HEK293-derived reporter line)
T2 sequence (Q9NR97 27-1041): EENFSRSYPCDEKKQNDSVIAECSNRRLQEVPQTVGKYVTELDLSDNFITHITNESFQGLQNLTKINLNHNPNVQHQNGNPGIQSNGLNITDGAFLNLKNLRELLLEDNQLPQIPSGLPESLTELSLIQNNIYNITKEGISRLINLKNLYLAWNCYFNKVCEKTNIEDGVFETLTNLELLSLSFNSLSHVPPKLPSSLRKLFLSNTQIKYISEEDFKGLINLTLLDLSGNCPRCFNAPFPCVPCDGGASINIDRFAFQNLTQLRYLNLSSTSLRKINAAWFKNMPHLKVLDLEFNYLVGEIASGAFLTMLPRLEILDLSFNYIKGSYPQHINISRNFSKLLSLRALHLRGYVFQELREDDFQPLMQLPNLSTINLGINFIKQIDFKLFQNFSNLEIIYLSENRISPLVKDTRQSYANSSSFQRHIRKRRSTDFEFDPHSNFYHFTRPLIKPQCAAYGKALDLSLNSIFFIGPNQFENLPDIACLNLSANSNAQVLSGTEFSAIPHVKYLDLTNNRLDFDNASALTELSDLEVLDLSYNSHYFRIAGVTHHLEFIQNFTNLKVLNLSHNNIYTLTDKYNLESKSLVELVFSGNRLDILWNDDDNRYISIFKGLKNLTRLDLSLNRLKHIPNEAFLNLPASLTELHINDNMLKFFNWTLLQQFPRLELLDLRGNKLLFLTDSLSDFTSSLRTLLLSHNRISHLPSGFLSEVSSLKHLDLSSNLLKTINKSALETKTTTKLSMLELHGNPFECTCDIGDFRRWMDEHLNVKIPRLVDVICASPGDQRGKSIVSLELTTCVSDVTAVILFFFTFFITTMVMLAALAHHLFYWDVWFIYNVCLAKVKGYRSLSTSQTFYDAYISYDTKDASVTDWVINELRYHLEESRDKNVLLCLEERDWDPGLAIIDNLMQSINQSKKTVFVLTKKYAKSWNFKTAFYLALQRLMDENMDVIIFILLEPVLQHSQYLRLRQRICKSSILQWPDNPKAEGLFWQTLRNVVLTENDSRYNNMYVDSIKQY
Nature of the assay: TLR8 inhibition reporter assay (HEK-Blue cells, SEAP reporter, R848 stimulation). As to conditions: HEK-Blue cells overexpressing human TLR8, SEAP reporter, R848 15.9 μM. The method, boiled down:
as §1

A further assay concerns the target T3, human TLR7 (Homo sapiens, UniProt Q9NYK1).
T3 construct: host or cells: HEK-Blue cells (HEK293-derived reporter line)
T3 sequence (Q9NYK1 27-1049): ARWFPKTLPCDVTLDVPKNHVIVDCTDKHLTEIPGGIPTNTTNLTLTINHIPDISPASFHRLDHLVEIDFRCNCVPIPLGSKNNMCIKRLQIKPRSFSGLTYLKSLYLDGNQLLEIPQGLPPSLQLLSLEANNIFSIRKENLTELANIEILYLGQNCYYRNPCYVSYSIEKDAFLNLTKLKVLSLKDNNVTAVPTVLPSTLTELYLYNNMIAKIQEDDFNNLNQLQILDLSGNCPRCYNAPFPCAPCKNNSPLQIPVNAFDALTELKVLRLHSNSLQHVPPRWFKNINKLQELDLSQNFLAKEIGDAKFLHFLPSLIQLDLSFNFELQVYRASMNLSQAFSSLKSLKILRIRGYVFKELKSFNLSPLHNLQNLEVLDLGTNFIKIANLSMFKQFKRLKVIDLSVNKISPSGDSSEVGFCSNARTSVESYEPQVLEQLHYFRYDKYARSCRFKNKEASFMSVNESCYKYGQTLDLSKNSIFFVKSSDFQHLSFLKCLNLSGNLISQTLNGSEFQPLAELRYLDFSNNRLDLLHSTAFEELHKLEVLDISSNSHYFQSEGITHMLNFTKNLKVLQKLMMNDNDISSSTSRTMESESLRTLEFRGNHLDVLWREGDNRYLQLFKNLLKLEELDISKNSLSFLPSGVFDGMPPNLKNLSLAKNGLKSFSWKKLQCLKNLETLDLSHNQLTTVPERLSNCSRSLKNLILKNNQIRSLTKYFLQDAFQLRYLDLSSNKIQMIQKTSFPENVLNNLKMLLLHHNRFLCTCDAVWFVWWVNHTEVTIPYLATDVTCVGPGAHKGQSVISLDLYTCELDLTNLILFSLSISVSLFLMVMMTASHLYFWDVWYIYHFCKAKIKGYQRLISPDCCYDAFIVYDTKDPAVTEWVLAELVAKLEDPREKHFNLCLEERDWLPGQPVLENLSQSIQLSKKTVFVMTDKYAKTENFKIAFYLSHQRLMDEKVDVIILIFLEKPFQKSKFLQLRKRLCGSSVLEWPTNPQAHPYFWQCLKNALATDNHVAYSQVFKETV
The assay is described as follows: TLR7 inhibition reporter assay (HEK-Blue cells, SEAP reporter, gardiquimod stimulation). As to conditions: HEK-Blue cells overexpressing human TLR7, SEAP reporter, gardiquimod 7.5 μM. In short, it runs like this: as §1

For the molecule `Cc1nc2c(-c3[nH]c4ccc(C5CCN(CC(=O)N(C)C)CC5)cc4c3C(C)C)ccc(C)n2n1` [Example 384, 2-(4-(2-(2,5-dimethyl-[1,2,4]triazolo[1,5-a]pyridin-8-yl)-3-isopropyl-1H-indol-5-yl)piperidin-1-yl)-N,N-dimethylacetamide], the IC50 lay within 1000 to 50000 nM at human TLR9, 100 to 1000 nM against human TLR8 and 1000 to 50000 nM on human TLR7.
As for `Cc1ccc(-c2[nH]c3ccc(C4CCN(CC(=O)N(C)C)CC4)cc3c2C(C)C)c2ncnn12` [Example 385, 2-(4-(3-isopropyl-2-(5-methyl-[1,2,4]triazolo[1,5-a]pyridin-8-yl)-1H-indol-5-yl)piperidin-1-yl)-N,N-dimethylacetamide], the IC50 was 1000 to 50000 nM on human TLR9, under 100 nM on human TLR8 and under 100 nM at human TLR7.
As to `CNC(=O)CN1CCC(c2ccc3[nH]c(-c4ccc(C)n5ncnc45)c(C(C)C)c3c2)CC1` [Example 386, 2-(4-(3-isopropyl-2-(5-methyl-[1,2,4]triazolo[1,5-a]pyridin-8-yl)-1H-indol-5-yl)piperidin-1-yl)-N-methylacetamide], the values for the IC50 against human TLR9, against human TLR8 and at human TLR7 were 1000 to 50000 nM, 100 to 1000 nM and under 100 nM, respectively.
For `CNC(=O)CN1CCC(c2ccc3[nH]c(-c4ccnc5[nH]ncc45)c(CC(F)F)c3c2)CC1` [Example 387, 2-(4-(3-(2,2-difluoroethyl)-2-(1H-pyrazolo[3,4-b]pyridin-4-yl)-1H-indol-5-yl)piperidin-1-yl)-N-methylacetamide] the same measures were 1000 to 50000 nM, under 100 nM and 100 to 1000 nM.
On the same counts, the results for `CCc1c(-c2cccc3[nH]ncc23)[nH]c2ccc(C3CCN(CC(=O)NC)CC3)cc12` [Example 388, 2-(4-(3-ethyl-2-(1H-indazol-4-yl)-1H-indol-5-yl)piperidin-1-yl)-N-methylacetamide] are over 50000 nM, 1000 to 50000 nM and 1000 to 50000 nM.
For `CCc1c(-c2cccc3[nH]ncc23)[nH]c2ccc(C3CCN(CC(=O)N(C)C)CC3)cc12` [Example 389, 2-(4-(3-ethyl-2-(1H-indazol-4-yl)-1H-indol-5-yl)piperidin-1-yl)-N,N-dimethylacetamide] the same measures were 1000 to 50000 nM, 1000 to 50000 nM and 1000 to 50000 nM.
In the case of `CNC(=O)CN1CCC(c2ccc3[nH]c(-c4ccc5ncc(C#N)n5c4)c(C(C)C)c3c2)CC1` [Example 390, 2-(4-(2-(3-cyanoimidazo[1,2-a]pyridin-6-yl)-3-isopropyl-1H-indol-5-yl)piperidin-1-yl)-N-methylacetamide], the IC50 is over 50000 nM against human TLR9, 100 to 1000 nM on human TLR8 and 100 to 1000 nM at human TLR7.
As to `CNC(=O)CN1CCC(c2ccc3[nH]c(-c4cc(C)c5nc(C)cn5c4)c(C(C)C)c3c2)CC1` [Example 391, 2-(4-(2-(2,8-dimethylimidazo[1,2-a]pyridin-6-yl)-3-isopropyl-1H-indol-5-yl)piperidin-1-yl)-N-methylacetamide], the IC50 was 100 to 1000 nM on human TLR9, under 100 nM on human TLR8 and under 100 nM at human TLR7.
For the molecule `CNC(=O)CN1CCC(c2ccc3[nH]c(-c4cc(CC(C)C)n5nc(C)cc5c4)c(C(C)C)c3c2)CC1` [Example 392, 2-(4-(2-(7-isobutyl-2-methylpyrazolo[1,5-a]pyridin-5-yl)-3-isopropyl-1H-indol-5-yl)piperidin-1-yl)-N-methylacetamide], the IC50 against human TLR9 is 1000 to 50000 nM; against human TLR8, over 3130 nM; at human TLR7, over 3130 nM.
With `Cc1cc2cc(-c3[nH]c4ccc(C5CCN(CC(=O)N(C)C)CC5)cc4c3C(C)C)cc(CC(C)C)n2n1` [Example 393, 2-(4-(2-(7-isobutyl-2-methylpyrazolo[1,5-a]pyridin-5-yl)-3-isopropyl-1H-indol-5-yl)piperidin-1-yl)-N,N-dimethylacetamide], the IC50 was 1000 to 50000 nM at human TLR9, over 3130 nM against human TLR8 and over 3130 nM at human TLR7.
With `CNC(=O)CN1CCC(c2ccc3[nH]c(-c4cc(C)c5nccnc5c4)c(C(C)C)c3c2)CC1` [Example 394, 2-(4-(3-isopropyl-2-(8-methylquinoxalin-6-yl)-1H-indol-5-yl)piperidin-1-yl)-N-methylacetamide], the half-maximal inhibitory concentration (IC50) on human TLR9 was 1000 to 50000 nM; on human TLR8, 100 to 1000 nM; against human TLR7 it was under 100 nM.
For `Cc1cc(-c2[nH]c3ccc(C4CCN(CC(=O)N(C)C)CC4)cc3c2C(C)C)cc2nccnc12` [Example 395, 2-(4-(3-isopropyl-2-(8-methylquinoxalin-6-yl)-1H-indol-5-yl)piperidin-1-yl)-N,N-dimethylacetamide], the half-inhibitory concentration (IC50) against human TLR9 was 1000 to 50000 nM; on human TLR8, under 100 nM; at human TLR7 it was under 100 nM.
